Measured values from patent US9309242B2, “Substituted pyrido[2,3-b]pyrazines as FGFR kinase inhibitors” (priority 2011, dated 2016).

Tests used:
[1] = target: FGFR2 (h) (Homo sapiens, UniProt P21802); assay: FGFR2 (enzymatic assay), TR-FRET; type: biochemical; details: enzymatic assay; read-out: FGFR 2 pIC50 (converted)
Procedure, shortened: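 At low ATP (0.4 μM), enzyme activity of human FGFR2 (150 ng/ml) toward biotinylated Flt3 substrate (500 nM) was followed with test compound present. Reactions ran in 50 mM HEPES pH 7.5, 6 mM MnCl2, 1 mM DTT, 0.1 mM Na3VO4, 0.01% Triton-X-100, 1% DMSO.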

[2] = target: Ba/F3-FGFR4-transfected cells (Homo sapiens, UniProt P22455); assay: Ba/F3-FGFR4 cellular proliferation assay, Alamar Blue; type: cell-based
Procedure, shortened: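 Step one: compound dilutions in DMSO are sprayed into wells. Step two: transfected Ba/F3-FGFR4 cells are added at 20000 per well and incubated 24 hours at 37° C. Step three: Alamar Blue is added for 4 hours and relative fluorescence is measured.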

[3] = target: FGFR4 (h) (Homo sapiens, UniProt P22455); assay: FGFR4 (enzymatic assay), TR-FRET; type: biochemical; details: FGFR 4 pIC50, enzymatic assay
[4] = target: FGFR1 (h) (Homo sapiens, UniProt P11362); assay: FGFR1 (enzymatic assay), TR-FRET; type: biochemical; details: read-out: FGFR 1 pIC50 (converted)
Sequence of FGFR1 (h) (P11362 22-822): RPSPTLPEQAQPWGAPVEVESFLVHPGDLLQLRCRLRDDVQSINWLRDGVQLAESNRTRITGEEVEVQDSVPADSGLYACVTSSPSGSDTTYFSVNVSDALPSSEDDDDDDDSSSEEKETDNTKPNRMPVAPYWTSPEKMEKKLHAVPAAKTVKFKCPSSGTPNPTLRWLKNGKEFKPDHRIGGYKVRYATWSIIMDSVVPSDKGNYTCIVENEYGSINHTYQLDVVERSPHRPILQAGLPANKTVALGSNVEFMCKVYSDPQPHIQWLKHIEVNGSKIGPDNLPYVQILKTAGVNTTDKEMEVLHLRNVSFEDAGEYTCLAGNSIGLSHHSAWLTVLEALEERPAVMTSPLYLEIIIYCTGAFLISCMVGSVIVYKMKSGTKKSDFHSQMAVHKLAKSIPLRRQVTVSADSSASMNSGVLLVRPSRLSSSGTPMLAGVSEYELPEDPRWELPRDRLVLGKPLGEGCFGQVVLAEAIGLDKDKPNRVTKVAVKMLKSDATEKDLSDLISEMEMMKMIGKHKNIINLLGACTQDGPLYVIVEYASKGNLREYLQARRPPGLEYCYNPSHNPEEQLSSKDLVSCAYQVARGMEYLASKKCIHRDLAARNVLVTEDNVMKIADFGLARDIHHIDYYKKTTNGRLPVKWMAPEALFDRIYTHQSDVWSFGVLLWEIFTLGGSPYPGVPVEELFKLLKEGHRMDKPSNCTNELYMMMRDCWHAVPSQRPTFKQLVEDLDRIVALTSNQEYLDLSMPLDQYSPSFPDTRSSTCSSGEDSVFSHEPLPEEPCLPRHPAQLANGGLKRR

Sequence of Ba/F3-FGFR4-transfected cells (P22455 whole entry, change not shown): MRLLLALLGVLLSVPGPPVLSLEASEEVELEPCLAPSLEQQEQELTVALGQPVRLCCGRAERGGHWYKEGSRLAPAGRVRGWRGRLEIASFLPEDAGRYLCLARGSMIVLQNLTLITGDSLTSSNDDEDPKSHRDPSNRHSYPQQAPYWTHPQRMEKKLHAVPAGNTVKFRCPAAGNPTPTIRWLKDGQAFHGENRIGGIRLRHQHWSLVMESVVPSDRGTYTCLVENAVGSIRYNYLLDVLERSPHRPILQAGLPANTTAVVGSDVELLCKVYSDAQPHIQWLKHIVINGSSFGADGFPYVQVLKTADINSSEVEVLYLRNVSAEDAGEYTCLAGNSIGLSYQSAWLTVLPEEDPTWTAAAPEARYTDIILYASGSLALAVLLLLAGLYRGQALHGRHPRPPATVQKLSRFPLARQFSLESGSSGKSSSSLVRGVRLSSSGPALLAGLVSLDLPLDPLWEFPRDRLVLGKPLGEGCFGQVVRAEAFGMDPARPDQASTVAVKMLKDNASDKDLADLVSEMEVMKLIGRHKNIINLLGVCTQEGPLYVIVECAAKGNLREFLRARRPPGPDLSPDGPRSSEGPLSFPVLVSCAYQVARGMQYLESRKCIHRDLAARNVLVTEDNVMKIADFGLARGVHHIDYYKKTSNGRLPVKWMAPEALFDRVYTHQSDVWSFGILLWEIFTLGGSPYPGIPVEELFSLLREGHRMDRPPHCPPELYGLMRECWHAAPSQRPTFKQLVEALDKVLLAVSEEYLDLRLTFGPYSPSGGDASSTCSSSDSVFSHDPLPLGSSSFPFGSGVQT
Sequence of FGFR4 (h) (P22455 22-802): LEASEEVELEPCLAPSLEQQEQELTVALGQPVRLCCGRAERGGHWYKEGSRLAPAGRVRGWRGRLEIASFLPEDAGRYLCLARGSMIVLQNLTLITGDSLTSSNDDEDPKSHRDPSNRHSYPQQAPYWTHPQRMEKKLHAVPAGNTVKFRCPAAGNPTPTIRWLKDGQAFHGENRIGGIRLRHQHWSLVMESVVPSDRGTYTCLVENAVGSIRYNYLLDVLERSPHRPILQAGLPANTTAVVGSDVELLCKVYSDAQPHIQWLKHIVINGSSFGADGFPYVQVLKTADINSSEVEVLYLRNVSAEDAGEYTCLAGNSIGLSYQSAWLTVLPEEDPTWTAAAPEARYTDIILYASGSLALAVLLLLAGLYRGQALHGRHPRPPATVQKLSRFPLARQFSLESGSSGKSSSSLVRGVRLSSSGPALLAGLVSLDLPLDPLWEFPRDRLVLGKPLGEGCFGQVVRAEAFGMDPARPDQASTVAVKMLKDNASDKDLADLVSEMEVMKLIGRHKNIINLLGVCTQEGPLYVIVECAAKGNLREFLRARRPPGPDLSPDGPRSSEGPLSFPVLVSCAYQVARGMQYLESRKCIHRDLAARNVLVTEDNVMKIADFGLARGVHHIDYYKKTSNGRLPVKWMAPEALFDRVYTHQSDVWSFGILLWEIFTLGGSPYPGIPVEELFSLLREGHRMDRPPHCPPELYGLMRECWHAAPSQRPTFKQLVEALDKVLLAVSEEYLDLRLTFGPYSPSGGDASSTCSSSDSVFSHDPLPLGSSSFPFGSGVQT
Sequence of FGFR2 (h) (P21802 22-821): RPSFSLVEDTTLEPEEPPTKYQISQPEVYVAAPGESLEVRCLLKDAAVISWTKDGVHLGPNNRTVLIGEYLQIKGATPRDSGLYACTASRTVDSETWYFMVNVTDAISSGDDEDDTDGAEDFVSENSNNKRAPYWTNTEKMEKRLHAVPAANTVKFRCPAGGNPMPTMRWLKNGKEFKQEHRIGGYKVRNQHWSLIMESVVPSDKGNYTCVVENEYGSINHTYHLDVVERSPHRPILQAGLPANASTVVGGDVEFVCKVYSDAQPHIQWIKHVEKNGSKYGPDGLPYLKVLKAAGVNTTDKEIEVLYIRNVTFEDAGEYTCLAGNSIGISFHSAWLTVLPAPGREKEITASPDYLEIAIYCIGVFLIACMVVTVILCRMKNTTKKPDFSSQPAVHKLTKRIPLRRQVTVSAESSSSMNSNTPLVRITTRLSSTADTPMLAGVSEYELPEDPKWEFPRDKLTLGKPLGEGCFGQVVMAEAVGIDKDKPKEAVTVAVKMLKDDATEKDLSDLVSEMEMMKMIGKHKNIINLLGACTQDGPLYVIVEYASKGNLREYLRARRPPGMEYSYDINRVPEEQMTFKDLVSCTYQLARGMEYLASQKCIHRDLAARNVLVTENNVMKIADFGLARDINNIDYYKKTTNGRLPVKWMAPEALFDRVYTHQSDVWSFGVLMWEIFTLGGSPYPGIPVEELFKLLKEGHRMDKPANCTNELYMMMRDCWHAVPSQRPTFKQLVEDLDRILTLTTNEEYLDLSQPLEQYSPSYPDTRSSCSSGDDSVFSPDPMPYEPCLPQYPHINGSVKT

| SMILES | IC50 [1] [nM] | BAF3-FGFR4 pIC50 [2] | IC50 [3] [nM] | IC50 [4] [nM] |
| --- | --- | --- | --- | --- |
| COc1cc(OC)c(F)c(N(Cc2nc(OC)cc(OC)n2)c2ccc3ncc(-c4cnn(C)c4)nc3n2)c1 [Compound 220] | 6.92 | 5.83 | 29.5 | 4.17 |
| COc1cc(OC)cc(N(Cc2ncc[nH]2)c2ccc3ncc(-c4cnn(C5CCNCC5)c4)nc3n2)c1 [Compound 227] | 1.45 | 6.91 | 1.82 | 0.562 |
| COc1cc(OC)cc(N(Cc2ncc[nH]2)c2ccc3ncc(-c4cn[nH]c4)nc3n2)c1 [Compound 141] | 0.933 | 7.40 | 0.603 | 0.603 |
| COc1cc(OC)cc(N(Cc2ncc[nH]2)c2ccc3ncc(-c4cccnc4)nc3n2)c1 [Compound 182] | 2.04 | 7.17 | 2.34 | 1.7 |
| COc1cc(OC)c(F)c(N(Cc2cc(C)on2)c2ccc3ncc(-c4cnn(C)c4)nc3n2)c1 [Compound 180] | 1.62 | 7.10 | 1.66 | 1.1 |
| COc1cc(/N=c2\ccc3ncc(-c4cnn(C)c4)nc3n2Cc2cn[nH]c2)c(F)c(OC)c1 [Compound 155] | 1.2 | 8.09 | 0.324 | 0.55 |
| COc1cc(/N=c2\ccc3ncc(-c4cnn(C)c4)nc3n2Cc2cc(C)no2)c(F)c(OC)c1 [Compound 184] | 2.19 | 8.03 | 1.17 | 0.977 |
| COc1cc(OC)c(F)c(N(Cc2n[nH]c(=O)o2)c2ccc3ncc(-c4cnn(C)c4)nc3n2)c1 [Compound 284] | 2.14 | 6.01 | 5.5 | 1.58 |
| COc1cc(OC)c(F)c(N(Cc2ncc[nH]2)c2ccc3ncc(-c4ccncc4)nc3n2)c1 [Compound 211] | ~2.34 | 7.29 | 2.29 | 1 |
| COc1cc(/N=c2\ccc3ncc(-c4cnn(C)c4)nc3n2Cc2cnn(C)c2)c(F)c(OC)c1 [Compound 196] | 2.14 | ~8.62 | ~0.891 | 0.407 |
| COc1ccc(Cl)c(N(CC2CCC(=O)N2)c2ccc3ncc(-c4cnn(C)c4)nc3n2)c1Cl (single isomer, unassigned) [Compound 90] | 129 | <5 | ~912 | 166 |
| COc1cc(OC)c(F)c(N(Cc2ncco2)c2ccc3ncc(-c4cnn(C)c4)nc3n2)c1 [Compound 177] | 1.62 | 6.79 | 2.45 | 1.78 |
| COc1cc(OC)c(F)c(N(Cc2nccn2CCO)c2ccc3ncc(-c4cnn(C)c4)nc3n2)c1 [Compound 145] | 3.8 | 6.61 | 10.5 | 3.24 |
| COc1cc(/N=c2\ccc3ncc(-c4cnn(C)c4)nc3n2CCN2CCOCC2)cc(OC)c1 [Compound 147] | 2.04 | 6.85 | 3.24 | 1.51 |
| COc1cc(OC)c(F)c(N(Cc2ncc[nH]2)c2ccc3ncc(-c4ccccc4)nc3n2)c1 [Compound 200] | 1.7 | 7.33 | 1.48 | 0.537 |
| COc1cc(OC)c(F)c(N(CCNC2COC2)c2ccc3ncc(-c4cnn(C)c4)nc3n2)c1 [Compound 221] | 3.09 | 6.98 | 6.61 | 1.51 |
| COc1ccc(Cl)c(N(CC2CCC(=O)N2)c2ccc3ncc(-c4cnn(C)c4)nc3n2)c1Cl (centres unmarked) [Compound 93] | 60.3 | 5.02 | 794 | 66.1 |
